{
  "source": "patent EP0183174A2",
  "about": "“Substituted phenoxy urea, processes for its preparation and herbicide containing it as active ingredient” (KUMIAI CHEMICAL INDUSTRY CO., LTD., priority 1984, dated 1986)",
  "parameters_in_all_cases": "key: 5: Withered; 4.5: Herbicidal effect (or phytotoxicity) in a range of 90 to 99%; 4: Herbicidal effect (or phytotoxicity) in a range of 80 to 89%; 3.5: Herbicidal effect (or phytotoxicity) in a range of 70 to 79%; 3: Herbicidal effect (or phytotoxicity) in a range of 60 to 69%; 2.5: Herbicidal effect (or phytotoxicity) in a range of 50 to 59%; 2: Herbicidal effect (or phytotoxicity) in a range of 40 to 49%; 1.5: Herbicidal effect (or phytotoxicity) in a range of 30 to 39%; 1: Herbicidal effect (or phytotoxicity) in a range of 20 to 29%; 0.5: Herbicidal effect (or phytotoxicity) in a range of 1 to 19%; 0: No herbicidal effect (or no phytotoxicity)",
  "key": {"redroot pigweed": {"test_system": "redroot pigweed", "assay": "Test Example 3: herbicidal test by upland soil treatment", "assay_type": "in vivo, Amaranthus retroflexus L.", "conditions": "evaluated twenty days after application", "description": "(§1) Into each plastic pot of 600 cm^2, upland soil was filled, then seeds of barnyardgrass, crabgrass, green foxtail, redroot pigweed, rice flatsedge, rice, wheat, maize, soybean, cotton and sugar beet were sown, and they were covered with soil. A predetermined amount of the wettable powder prepared from the test compound in accordance with Formulation Example 3 and diluted with water, was uniformly applied to the surface of the soil at an application rate of 1000 liter/hectare by means of a small size spray. They were grown in a greenhouse, and twenty days after the application, the herbicidal effects and phytotoxicity were evaluated in accordance with the standards as identified in Table 5."}, "crabgrass": {"test_system": "crabgrass", "assay": "Test Example 3: herbicidal test by upland soil treatment", "assay_type": "in vivo, Digitaria sanquinalis L.", "conditions": "evaluated twenty days after application", "description": "as §1"}, "rice flatsedge": {"test_system": "rice flatsedge", "assay": "Test Example 4: herbicidal test by upland foliage treatment", "assay_type": "in vivo, Cy^perus iria L.", "procedure": "Into each plastic pot of 120 cm^2, upland soil was filled, then seeds of barnyardgrass, crabgrass, redroot pigweed and rice flatsedge were sown, and they were grown in a greenhouse until barnyardgrass. reached 3-leaf stage. Each wettable powder prepared from the test compound in accordance with Formulation Example 3 was diluted with water to give the amount of the active ingredient corresponding to 4 kg/hectare, and the diluted solution was uniformly sprayed at an application rate of 1000 liter/hectare from the top of plants by means of a small size spray, when barnyardgrass was in the 3-leaf stage. They were grown in a greenhouse, and twenty days after the application, the herbicidal effects were evaluated in accordance with the standards as identified in Table 5."}, "barnyardgrass": {"test_system": "barnyardgrass", "assay": "Test Example 3: herbicidal test by upland soil treatment", "assay_type": "in vivo, Echinochloa crus-galli L.", "conditions": "evaluated twenty days after application", "description": "as §1"}, "smallflower flatsedge": {"test_system": "smallflower flatsedge", "assay": "Test Example 1: herbicidal test by water treatment in a paddy field", "assay_type": "in vivo, Cvperus diffcrmis L.", "conditions": "evaluated thirty days after application", "procedure": "Into each porcelain pot having a diameter of 10 cm, paddy soil was filled and puddled, and seeds of barnyardgrass (Echinochloa crus-galli L.), smallflower flatsedge, monochoria and Japanese bulrush were sown, and water was filled in a-depth of 3 cm. One day later, a predetermined amount of the wettable powder prepared in Formulation Example 3 and diluted with water was dropwise applied to the surface of the water (dose of the active ingredient: 4 kg/hectare). Thereafter, they were grown in a green house. Thirty days after the application, the herbicidal effects were evaluated in accordance with the standards as identified in Table 5."}, "[1]": {"conditions": "active ingredient 4 kg/hectare, foliage spray 1000 liter/hectare at 3-leaf stage of barnyardgrass, twenty days after application"}, "[2]": {"conditions": "water treatment in paddy field pot, dose of active ingredient 4 kg/hectare"}, "[3]": {"conditions": "upland foliage treatment, 4 kg/hectare active ingredient, sprayed at 1000 liter/hectare at barnyardgrass 3-leaf stage, evaluated twenty days after application"}},
  "data": [
    {"smiles": "CN(C)C(=O)NOc1cc(Cl)ccc1Cl", "note": "[Compound No. 1, 3-(2,5-Dichlorophenoxy)-1,1-dimethyl urea]", "values": [
      {"measurement": "Herbicidal effects Redroot pigweed", "setting": "redroot pigweed; Dose 1 kg/HA", "result": 5},
      {"measurement": "Herbicidal effects Redroot pigweed", "setting": "redroot pigweed; Dose 4 kg/HA", "result": 5},
      {"measurement": "Herbicidal effects Crab-grass", "setting": "crabgrass; Dose 1 kg/HA", "result": 5},
      {"measurement": "Herbicidal effects Crab-grass", "setting": "crabgrass; Dose 4 kg/HA", "result": 5},
      {"measurement": "Herbicidal effects Rice flatsedge", "setting": "rice flatsedge; [1]", "result": 5},
      {"measurement": "Herbicidal effects Barnyard-grass", "setting": "barnyardgrass; Dose 1 kg/HA", "result": 5},
      {"measurement": "Herbicidal effects Barnyard-grass", "setting": "barnyardgrass; Dose 4 kg/HA", "result": 5},
      {"measurement": "Herbicidal effects Small flower flatsedge", "setting": "smallflower flatsedge; dose of the active ingredient 4 kg/hectare, wettable powder applied to water surface one day after sowing", "result": 5}
    ]},
    {"smiles": "CC(C)N(C)C(=O)NOc1cc(Cl)cc(Cl)c1", "note": "[Compound No. 186, 3-(3,5-Dichlorophenoxy)-1-isopropyl-1-methyl urea trichloroacetate]", "values": [
      {"measurement": "Herbicidal effects Redroot pigweed", "setting": "redroot pigweed; Dose 1 kg/HA", "result": 5},
      {"measurement": "Herbicidal effects Redroot pigweed", "setting": "redroot pigweed; Dose 4 kg/HA", "result": 5},
      {"measurement": "Herbicidal effects Crab-grass", "setting": "crabgrass; Dose 1 kg/HA", "result": 5},
      {"measurement": "Herbicidal effects Crab-grass", "setting": "crabgrass; Dose 4 kg/HA", "result": 5},
      {"measurement": "Herbicidal effects Rice flatsedge", "setting": "rice flatsedge; [1]", "result": "4 (Herbicidal effect (or phytotoxicity) in a range of 80 to 89%)"},
      {"measurement": "Herbicidal effects Barnyard-grass", "setting": "barnyardgrass; Dose 1 kg/HA", "result": 5},
      {"measurement": "Herbicidal effects Barnyard-grass", "setting": "barnyardgrass; Dose 4 kg/HA", "result": 5},
      {"measurement": "Herbicidal effects Small flower flatsedge", "setting": "smallflower flatsedge; [2]", "result": 5}
    ]},
    {"smiles": "CON(C)C(=O)NOc1cc(Cl)ccc1Cl", "note": "[Compound No. 242, 3-(2,5-Dichlorophenoxy)-1-methoxy-1-methyl urea]", "values": [
      {"measurement": "Herbicidal effects Redroot pigweed", "setting": "redroot pigweed; Dose 1 kg/HA", "result": 5},
      {"measurement": "Herbicidal effects Redroot pigweed", "setting": "redroot pigweed; Dose 4 kg/HA", "result": 5},
      {"measurement": "Herbicidal effects Crab-grass", "setting": "crabgrass; Dose 1 kg/HA", "result": 5},
      {"measurement": "Herbicidal effects Crab-grass", "setting": "crabgrass; Dose 4 kg/HA", "result": 5},
      {"measurement": "Herbicidal effects Rice flatsedge", "setting": "rice flatsedge; [3]", "result": 5},
      {"measurement": "Herbicidal effects Barnyard-grass", "setting": "barnyardgrass; Dose 1 kg/HA", "result": 5},
      {"measurement": "Herbicidal effects Barnyard-grass", "setting": "barnyardgrass; Dose 4 kg/HA", "result": 5},
      {"measurement": "Herbicidal effects Small flower flatsedge", "setting": "smallflower flatsedge; [2]", "result": 5}
    ]},
    {"smiles": "COCCNC(=O)NOc1cc(Cl)ccc1Cl", "note": "[Compound No. 243]", "values": [
      {"measurement": "Herbicidal effects Redroot pigweed", "setting": "redroot pigweed; Dose 1 kg/HA", "result": 5},
      {"measurement": "Herbicidal effects Redroot pigweed", "setting": "redroot pigweed; Dose 4 kg/HA", "result": 5},
      {"measurement": "Herbicidal effects Crab-grass", "setting": "crabgrass; Dose 1 kg/HA", "result": 5},
      {"measurement": "Herbicidal effects Crab-grass", "setting": "crabgrass; Dose 4 kg/HA", "result": 5},
      {"measurement": "Herbicidal effects Rice flatsedge", "setting": "rice flatsedge; [3]", "result": 5},
      {"measurement": "Herbicidal effects Barnyard-grass", "setting": "barnyardgrass; Dose 1 kg/HA", "result": 5},
      {"measurement": "Herbicidal effects Barnyard-grass", "setting": "barnyardgrass; Dose 4 kg/HA", "result": 5},
      {"measurement": "Herbicidal effects Small flower flatsedge", "setting": "smallflower flatsedge; [2]", "result": 5}
    ]}
  ]
}
